Assay results taken from paper PMC8400311, “Novel Anti-Melanogenic Compounds, (Z)-5-(Substituted Benzylidene)-4-thioxothiazolidin-2-one Derivatives: In Vitro and In Silico Insights” (Molecules, 2021).
Where “and” joins values, the source holds several entries; their conditions need not be identical. Equal entries are not always repeated.

Columns and labels:
mushroom tyrosinase [1] = assay: Mushroom tyrosinase inhibition assay; format: biochemical; details: ratio of IC50 values vs kojic acid
Description: The absorbances of dopachrome produced in each well during incubation was measured at 450 nm using a microplate reader (VersaMax™, Molecular Devices, Sunnyvale, CA, USA). […] All experiments were independently conducted 3 times. To calculate the % inhibition of tyrosinase activity, the following formula was used: % inhibition = […], where A means the optical density of the test samples and B means the optical density of the non-treated control. To calculate the concentration necessary for 50% inhibition of enzyme activity (IC50), the % tyrosinase inhibition of each compound was obtained at 3 or more different concentrations. IC50 values were calculated by constructing a linear regression curve showing the concentration of the (Z)-BTTZ compounds on the x-axis and percentage inhibition on the y-axis. To obtain a negative control dimethyl sulfoxide (DMSO) was added instead of the (Z)-BTTZ compounds.

mushroom tyrosinase [2] = assay: Kinetic study of mushroom tyrosinase inhibition (Lineweaver–Burk plots); format: biochemical; details: L-tyrosine 0.5–8.0 mM
Description: To investigate the modes of action of compounds 2b and 2f, a kinetic study was performed using mushroom tyrosinase and different concentrations of L-tyrosine as a substrate in the presence of 2b or 2f. As depicted in Figure 4, inhibitory mechanisms were determined using Lineweaver–Burk plot analysis. The Lineweaver–Burk plot patterns of 2b and 2f were similar. The plots obtained at different concentrations of 2b and 2f merged at single points on the y-axis. Regardless of the concentration, the Vmax values of 2b and 2f were independent of concentration, whereas their KM values increased concentration-dependently.
Compounds 2b or 2f (10 µL, final concentrations: 0, 0.05, 0.1, or 0.2 µM for 2b and 0, 2, 4, or 8 µM for 2f) and mushroom tyrosinase solution (20 µL, 150 units) were added to the wells of a 96-well plate containing aqueous solutions (170 µL) containing L-tyrosine at 0.5, 1.0, 2.0, 4.0, or 8.0 mM (final concentrations), distilled water, and potassium phosphate buffer (final concentration: 14.7 mM, pH 6.5), in the ratio 10:9:10. Initial rates of dopachrome formation in reaction mixtures were calculated by measuring increases in absorbances at 492 nm (ΔOD492/min) using a microplate reader (VersaMax^TM, Molecular Devices, Sunnyvale, CA, USA). […] Modes of tyrosinase inhibition were determined using points of convergence. […]

B16F10 melanoma cells [3] = assay: Cell viability, EZ-Cytox assay; format: cell-based, murine; details: concentrations ≤25 µM; 24 and 48 h for 2b and 2f, respectively
Description: Before examining the inhibitory effects of compounds 2b and 2f on tyrosinase and melanin biosynthesis, we investigated their cytotoxic effects using murine B16F10 melanoma cells. The cells were treated with different concentrations of 2b or 2f (0, 1, 2.5, 5, 10, or 25 µM) for 24 and 48 h (Figure 7), respectively, and the cell viabilities were assessed using the EZ-Cytox assay.
Cell viability assays of compounds 2b and 2f were performed using B16F10 melanoma cells and the EZ-Cytox assay (EZ-3000, DoGenBio, Seoul, Korea), as previously described. Briefly, cells were seeded at a density of 1 × 10^4 cells/well in a 96-well plate for 24 h, and then were exposed to different concentrations (0, 1, 2.5, 5, 10, or 25 µM) of 2b or 2f and incubated at 37 °C for 24 and 48 h, respectively. EZ-Cytox solution (10 µL) was then added to each well and cells were incubated at 37 °C for 2 h. Absorbances were measured at 450 nm using a microplate reader (VersaMax^TM, Molecular Devices, Sunnyvale, CA, USA). Each assay was performed in triplicate.
Figure 7 The cytotoxic effects of compounds 2b (a) and 2f (b) on B16F10 melanoma cells at concentrations of 1, 2.5, 5, 10, or 25 µM. Cell viabilities were determined using the EZ-Cytox assay and are expressed as percentages versus non-treated controls. Bars present standard errors.

B16F10 melanoma cells [4] = assay: Melanin content assay in α-MSH-stimulated cells; format: cell-based, murine; details: α-MSH 0.5 µM; for reduction in melanin content: 48 h; for melanin level versus non-treated controls: 48 h (α-MSH alone 1.61-fold)
Description: Melanin content assays were used to evaluate the inhibitory effects of compounds 2b and 2f on α-MSH-stimulated melanogenesis. […] The inhibitory activities on α-MSH-stimulated melanogenesis were determined by measuring melanin optical densities. The anti-melanogenesis activities of compounds 2b and 2f were assessed using a standard melanin content assay with minor modifications. Briefly, B16F10 cells were seeded at a density of 5 × 10^4/well in a 24-well plate and allowed to adhere to wells in a DMEM solution containing penicillin/streptomycin (100 IU/100 µg/mL) and 10% heat-inactivated FBS in a standard humidified 5% CO2 atmosphere at 37 °C. […] Cells were then rinsed twice with PBS and lysed in 200 µL of 1N NaOH containing 10% dimethyl sulfoxide (DMSO) for 1 h at 60 °C. Lysates were transferred to the wells of a 96-well plate, and melanin absorbances were measured at 405 nm using a microplate reader (VersaMax^TM, Molecular Devices, Sunnyvale, CA, USA). All experiments were conducted three times in triplicate. […] Bars represent standard errors.

[5] = tested on: cellular tyrosinase in B16F10 melanoma cells; assay: Cellular tyrosinase activity assay (L-DOPA oxidation) in α-MSH-stimulated cells; format: cell-based, murine; details: α-MSH 0.5 µM; for reduction in cellular tyrosinase activity: 48 h; for cellular tyrosinase activity versus non-treated cells: 48 h (α-MSH alone 2.19-fold)
Description: The inhibitory activities of compounds 2b and 2f against cellular tyrosinase were assessed using α-MSH-stimulated melanoma cells. […] The inhibitory effects on tyrosinase activity were evaluated by measuring optical densities.
Tyrosinase activities were assessed by determining the L-DOPA oxidation rate, as described previously with minor modifications. […] Cells were then rinsed twice with PBS, exposed to 100 µL of lysis buffer (90 µL of 50 mM phosphate buffer pH 6.8; 5 µL of 2 mM PMSF; 5 µL of 20% Triton), and frozen at −80 °C for 30 min. After defrosting, lysates were centrifuged at 12,000 g for 30 min at 4 °C, and supernatants (80 µL) were mixed with 10 mM L-DOPA (20 µL) in a 96-well plate. Absorbances were measured at 490 nm at 37 °C every 10 min for 1 h using a microplate reader (VersaMax^TM, Molecular Devices, Sunnyvale, CA, USA). All experiments were carried out three times in triplicate.
Bars represent standard errors.

O=C1NC(=S)/C(=C/c2ccc(O)cc2O)S1 [Compound 2b, (Z)-5-(2,4-Dihydroxybenzylidene)-4-thioxothiazolidin-2-one]
fold higher inhibitory potency than kojic acid (mushroom tyrosinase) (mushroom tyrosinase [1]): 141 fold and > 100 fold
mode of mushroom tyrosinase inhibition (mushroom tyrosinase [2]): competitive
cytotoxic effect on B16F10 cells (B16F10 melanoma cells [3]): Neither 2b nor 2f exhibited any significant cytotoxic effect
reduction in melanin content (B16F10 melanoma cells [4]; 5 µM compound): 26%
melanin level versus non-treated controls (B16F10 melanoma cells [4]; 5 µM compound): 1.19 fold
reduction in melanin content (B16F10 melanoma cells [4]; 10 µM compound): 44%
melanin level versus non-treated controls (B16F10 melanoma cells [4]; 10 µM compound): 0.91 fold
reduction in melanin content (B16F10 melanoma cells [4]; 25 µM compound): 47%
melanin level versus non-treated controls (B16F10 melanoma cells [4]; 25 µM compound): 0.85 fold
reduction in cellular tyrosinase activity ([5]; 5 µM compound): 16%
cellular tyrosinase activity versus non-treated cells ([5]; 5 µM compound): 1.85 fold
reduction in cellular tyrosinase activity ([5]; 10 µM compound): 32%
cellular tyrosinase activity versus non-treated cells ([5]; 10 µM compound): 1.48 fold
reduction in cellular tyrosinase activity ([5]; 25 µM compound): 45%
cellular tyrosinase activity versus non-treated cells ([5]; 25 µM compound): 1.20 fold
